Experimental data: publication PMC3480357, “Fragment-Hopping-Based Discovery of a Novel Chemical Series of Proto-Oncogene PIM-1 Kinase Inhibitors” (PLoS ONE, 2012)

Columns and labels:
B-RAF-V600E = B-RAF-V600E (Homo sapiens, UniProt P15056, V600E); design: method as in PMID 21051136; settings: 10 µM; average of two data points; cited from earlier work
MET = MET (Homo sapiens, UniProt P08581); design: method as in PMID 21051136; settings: 10 µM; average of two data points; cited from earlier work
JAK2 = JAK2 (Homo sapiens, UniProt O60674); design: method as in PMID 21051136; settings: 10 µM; average of two data points; cited from earlier work
PIM-3 = PIM-3 (Homo sapiens, UniProt Q86V86); design: method as in PMID 21051136; settings: cited from earlier work
EGF-R = EGF-R (Homo sapiens, UniProt P00533); design: method as in PMID 21051136; settings: 10 µM; average of two data points; cited from earlier work
Sequence of EGF-R (P00533 25-1210, species assumed): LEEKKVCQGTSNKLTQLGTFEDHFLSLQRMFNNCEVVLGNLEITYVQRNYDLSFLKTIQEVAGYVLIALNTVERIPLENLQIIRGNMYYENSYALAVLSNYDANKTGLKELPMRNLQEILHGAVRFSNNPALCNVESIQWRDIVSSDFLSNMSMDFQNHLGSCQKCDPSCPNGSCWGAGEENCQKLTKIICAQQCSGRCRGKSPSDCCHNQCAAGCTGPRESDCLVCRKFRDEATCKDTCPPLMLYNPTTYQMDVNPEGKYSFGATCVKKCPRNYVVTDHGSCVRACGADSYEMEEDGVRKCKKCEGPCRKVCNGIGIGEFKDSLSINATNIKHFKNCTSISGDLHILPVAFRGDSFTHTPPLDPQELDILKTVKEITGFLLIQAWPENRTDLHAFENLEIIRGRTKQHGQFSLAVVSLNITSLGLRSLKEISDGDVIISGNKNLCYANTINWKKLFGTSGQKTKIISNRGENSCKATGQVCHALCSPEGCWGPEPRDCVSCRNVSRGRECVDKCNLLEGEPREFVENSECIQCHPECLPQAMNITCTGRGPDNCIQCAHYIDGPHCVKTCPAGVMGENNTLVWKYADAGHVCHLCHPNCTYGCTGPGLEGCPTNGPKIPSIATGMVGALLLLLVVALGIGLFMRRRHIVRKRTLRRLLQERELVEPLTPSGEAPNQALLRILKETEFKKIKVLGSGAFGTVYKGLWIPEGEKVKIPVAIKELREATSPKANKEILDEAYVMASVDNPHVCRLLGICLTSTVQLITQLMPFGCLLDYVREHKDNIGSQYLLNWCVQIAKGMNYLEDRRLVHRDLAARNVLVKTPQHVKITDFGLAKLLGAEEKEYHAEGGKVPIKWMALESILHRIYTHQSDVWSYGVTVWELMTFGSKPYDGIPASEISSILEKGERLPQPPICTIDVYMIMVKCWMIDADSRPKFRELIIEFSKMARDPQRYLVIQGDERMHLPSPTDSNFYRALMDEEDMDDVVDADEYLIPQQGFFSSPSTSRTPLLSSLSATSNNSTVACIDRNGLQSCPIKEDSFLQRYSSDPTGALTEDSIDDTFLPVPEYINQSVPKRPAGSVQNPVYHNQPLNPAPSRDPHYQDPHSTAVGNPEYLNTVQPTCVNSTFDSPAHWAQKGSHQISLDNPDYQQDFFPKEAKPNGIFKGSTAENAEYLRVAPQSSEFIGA

CK1-α1 = CK1-α1 (Homo sapiens, UniProt P48729); design: method as in PMID 21051136; settings: 10 µM; average of two data points; cited from earlier work
FLT3 = biological target: T1, FLT3 (Homo sapiens, UniProt P36888); design: method as in PMID 21051136; settings: 10 µM; cited from earlier work
T1 construct: purchased Invitrogen PV3182
T1 sequence (P36888 564-993 limits assumed): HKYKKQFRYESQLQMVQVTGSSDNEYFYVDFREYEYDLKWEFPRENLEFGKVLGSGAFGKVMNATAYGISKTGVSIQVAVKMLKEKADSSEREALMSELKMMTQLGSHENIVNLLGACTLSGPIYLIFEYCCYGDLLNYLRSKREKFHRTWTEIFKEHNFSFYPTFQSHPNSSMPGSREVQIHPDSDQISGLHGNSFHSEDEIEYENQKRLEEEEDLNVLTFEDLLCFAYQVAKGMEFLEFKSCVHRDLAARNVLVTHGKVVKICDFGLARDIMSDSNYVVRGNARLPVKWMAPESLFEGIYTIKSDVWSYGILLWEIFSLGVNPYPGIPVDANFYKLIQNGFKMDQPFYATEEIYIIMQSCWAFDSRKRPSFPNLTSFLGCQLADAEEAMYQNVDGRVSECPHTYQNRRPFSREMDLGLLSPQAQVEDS

ARK5 = biological target: T2, ARK5 (Homo sapiens, UniProt O60285); design: method as in PMID 21051136; settings: 10 µM; average of two data points; cited from earlier work
T2 sequence (O60285 1-661): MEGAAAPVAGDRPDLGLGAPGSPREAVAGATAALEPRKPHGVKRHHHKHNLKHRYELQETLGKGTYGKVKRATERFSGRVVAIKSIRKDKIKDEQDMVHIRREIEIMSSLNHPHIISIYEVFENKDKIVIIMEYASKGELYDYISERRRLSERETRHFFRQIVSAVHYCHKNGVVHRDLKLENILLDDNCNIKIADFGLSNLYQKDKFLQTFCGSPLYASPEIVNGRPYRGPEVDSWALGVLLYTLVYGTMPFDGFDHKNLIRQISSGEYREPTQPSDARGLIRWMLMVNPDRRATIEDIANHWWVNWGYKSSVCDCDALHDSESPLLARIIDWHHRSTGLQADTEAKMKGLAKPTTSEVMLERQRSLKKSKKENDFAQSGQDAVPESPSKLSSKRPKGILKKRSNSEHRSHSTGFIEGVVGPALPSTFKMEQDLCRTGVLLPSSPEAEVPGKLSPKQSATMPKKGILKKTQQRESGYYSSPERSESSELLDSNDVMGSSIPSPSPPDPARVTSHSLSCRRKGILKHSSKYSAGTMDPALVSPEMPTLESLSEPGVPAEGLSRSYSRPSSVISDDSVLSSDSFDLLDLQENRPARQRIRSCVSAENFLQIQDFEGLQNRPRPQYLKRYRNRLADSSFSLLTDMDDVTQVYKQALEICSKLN

IGF1-R = IGF1-R (Homo sapiens, UniProt P08069); design: method as in PMID 21051136; settings: 10 µM; average of two data points; cited from earlier work
Sequence of IGF1-R (P08069 31-1367, species assumed): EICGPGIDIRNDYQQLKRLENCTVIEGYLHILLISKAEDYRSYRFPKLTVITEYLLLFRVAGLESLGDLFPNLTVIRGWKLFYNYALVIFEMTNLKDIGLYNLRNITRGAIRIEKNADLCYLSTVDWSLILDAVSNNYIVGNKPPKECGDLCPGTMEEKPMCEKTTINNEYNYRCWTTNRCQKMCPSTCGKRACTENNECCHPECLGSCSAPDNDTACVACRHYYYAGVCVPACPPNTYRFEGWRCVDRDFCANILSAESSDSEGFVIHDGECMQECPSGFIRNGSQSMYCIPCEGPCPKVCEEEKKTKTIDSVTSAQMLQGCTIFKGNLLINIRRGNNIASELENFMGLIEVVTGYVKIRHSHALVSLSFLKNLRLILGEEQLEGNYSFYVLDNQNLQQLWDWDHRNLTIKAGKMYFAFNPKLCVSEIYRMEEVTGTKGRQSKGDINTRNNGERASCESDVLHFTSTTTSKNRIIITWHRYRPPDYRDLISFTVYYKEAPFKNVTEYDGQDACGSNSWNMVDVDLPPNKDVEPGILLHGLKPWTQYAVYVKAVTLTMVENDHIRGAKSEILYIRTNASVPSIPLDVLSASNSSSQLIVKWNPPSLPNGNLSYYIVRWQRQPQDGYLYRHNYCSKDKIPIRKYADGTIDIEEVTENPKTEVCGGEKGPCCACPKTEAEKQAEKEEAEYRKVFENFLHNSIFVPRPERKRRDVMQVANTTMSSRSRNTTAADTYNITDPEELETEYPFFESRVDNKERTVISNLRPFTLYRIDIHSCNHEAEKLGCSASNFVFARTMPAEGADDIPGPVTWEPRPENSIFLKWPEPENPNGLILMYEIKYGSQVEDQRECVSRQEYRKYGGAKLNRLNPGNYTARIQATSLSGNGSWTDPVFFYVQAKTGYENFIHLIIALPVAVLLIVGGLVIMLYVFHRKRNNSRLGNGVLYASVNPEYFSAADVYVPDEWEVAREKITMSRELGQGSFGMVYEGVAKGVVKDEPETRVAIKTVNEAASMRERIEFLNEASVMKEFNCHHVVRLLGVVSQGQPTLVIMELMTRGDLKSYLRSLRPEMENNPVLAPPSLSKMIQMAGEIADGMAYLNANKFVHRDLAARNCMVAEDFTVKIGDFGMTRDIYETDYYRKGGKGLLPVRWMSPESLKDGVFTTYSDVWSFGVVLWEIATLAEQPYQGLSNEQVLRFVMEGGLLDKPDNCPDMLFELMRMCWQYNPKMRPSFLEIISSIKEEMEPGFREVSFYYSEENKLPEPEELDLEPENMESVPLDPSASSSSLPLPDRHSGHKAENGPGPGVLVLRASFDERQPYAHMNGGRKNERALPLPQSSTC

PAK1 = PAK1 (Homo sapiens, UniProt Q13153); design: method as in PMID 21051136; settings: 10 µM; average of two data points; cited from earlier work
Sequence of PAK1 (Q13153 whole entry): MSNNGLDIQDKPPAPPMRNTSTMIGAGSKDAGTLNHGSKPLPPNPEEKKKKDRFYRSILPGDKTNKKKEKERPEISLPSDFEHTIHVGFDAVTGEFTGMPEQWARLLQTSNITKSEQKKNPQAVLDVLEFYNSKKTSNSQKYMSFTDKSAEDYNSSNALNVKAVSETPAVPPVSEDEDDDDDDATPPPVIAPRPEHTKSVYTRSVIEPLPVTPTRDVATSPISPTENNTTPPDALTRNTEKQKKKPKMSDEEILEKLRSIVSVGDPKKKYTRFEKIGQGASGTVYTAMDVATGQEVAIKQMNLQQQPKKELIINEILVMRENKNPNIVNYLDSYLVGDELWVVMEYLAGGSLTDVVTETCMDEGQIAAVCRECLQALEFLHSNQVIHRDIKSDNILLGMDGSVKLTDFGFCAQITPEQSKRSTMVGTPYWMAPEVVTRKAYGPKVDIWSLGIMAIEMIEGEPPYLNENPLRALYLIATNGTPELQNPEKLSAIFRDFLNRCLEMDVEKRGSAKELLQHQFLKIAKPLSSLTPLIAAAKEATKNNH

FGF-R1 = FGF-R1 (Homo sapiens, UniProt P11362); design: method as in PMID 21051136; settings: 10 µM; average of two data points; cited from earlier work
PIM-2 = PIM-2 (Homo sapiens, UniProt Q9P1W9); design: method as in PMID 21051136; settings: cited from earlier work
FAK = FAK (Homo sapiens, UniProt Q05397); design: method as in PMID 21051136; settings: 10 µM; average of two data points; cited from earlier work
INS-R = INS-R (Homo sapiens, UniProt P06213); design: method as in PMID 21051136; settings: 10 µM; average of two data points; cited from earlier work
AKT1 = AKT1 (Homo sapiens, UniProt P31749); design: method as in PMID 21051136; settings: 10 µM; average of two data points; cited from earlier work
Sequence of AKT1 (P31749 whole entry, species assumed): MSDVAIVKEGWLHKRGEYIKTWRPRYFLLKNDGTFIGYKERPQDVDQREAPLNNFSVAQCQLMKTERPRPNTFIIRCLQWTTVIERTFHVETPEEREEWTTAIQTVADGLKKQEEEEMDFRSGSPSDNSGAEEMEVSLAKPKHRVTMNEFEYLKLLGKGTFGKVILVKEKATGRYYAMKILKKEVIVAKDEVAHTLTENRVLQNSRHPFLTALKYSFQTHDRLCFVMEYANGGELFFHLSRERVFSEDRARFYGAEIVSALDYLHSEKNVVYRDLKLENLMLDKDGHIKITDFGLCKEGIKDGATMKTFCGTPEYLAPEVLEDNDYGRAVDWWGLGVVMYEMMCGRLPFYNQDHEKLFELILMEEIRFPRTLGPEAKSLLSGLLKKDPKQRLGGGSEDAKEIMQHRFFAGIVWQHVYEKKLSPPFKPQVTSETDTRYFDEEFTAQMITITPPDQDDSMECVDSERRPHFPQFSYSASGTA

MST1 = biological target: T3, MST1 (Homo sapiens, UniProt Q13043); design: method as in PMID 21051136; settings: 10 µM; average of two data points; cited from earlier work
T3 sequence (Q13043 1-487): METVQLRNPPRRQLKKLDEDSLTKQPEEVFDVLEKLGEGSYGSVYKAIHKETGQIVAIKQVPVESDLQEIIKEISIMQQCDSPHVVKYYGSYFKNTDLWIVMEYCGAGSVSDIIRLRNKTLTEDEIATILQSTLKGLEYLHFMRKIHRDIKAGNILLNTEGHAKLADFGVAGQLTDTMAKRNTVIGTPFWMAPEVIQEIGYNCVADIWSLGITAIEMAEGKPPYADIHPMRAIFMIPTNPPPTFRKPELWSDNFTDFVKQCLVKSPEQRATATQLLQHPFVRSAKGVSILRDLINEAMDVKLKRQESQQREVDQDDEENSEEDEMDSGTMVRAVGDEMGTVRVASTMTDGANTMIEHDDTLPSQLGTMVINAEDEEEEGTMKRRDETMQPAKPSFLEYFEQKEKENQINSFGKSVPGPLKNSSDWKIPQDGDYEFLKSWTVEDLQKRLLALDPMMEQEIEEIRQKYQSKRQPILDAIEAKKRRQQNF

[1] = design: method as in earlier work; settings: SuperGen press release; cited from earlier work
hERG = hERG (Homo sapiens, UniProt Q12809); experiment: hERG radioligand binding assay using [3H]-astemizole; settings: duplicate
Sequence of hERG (Q12809 whole entry): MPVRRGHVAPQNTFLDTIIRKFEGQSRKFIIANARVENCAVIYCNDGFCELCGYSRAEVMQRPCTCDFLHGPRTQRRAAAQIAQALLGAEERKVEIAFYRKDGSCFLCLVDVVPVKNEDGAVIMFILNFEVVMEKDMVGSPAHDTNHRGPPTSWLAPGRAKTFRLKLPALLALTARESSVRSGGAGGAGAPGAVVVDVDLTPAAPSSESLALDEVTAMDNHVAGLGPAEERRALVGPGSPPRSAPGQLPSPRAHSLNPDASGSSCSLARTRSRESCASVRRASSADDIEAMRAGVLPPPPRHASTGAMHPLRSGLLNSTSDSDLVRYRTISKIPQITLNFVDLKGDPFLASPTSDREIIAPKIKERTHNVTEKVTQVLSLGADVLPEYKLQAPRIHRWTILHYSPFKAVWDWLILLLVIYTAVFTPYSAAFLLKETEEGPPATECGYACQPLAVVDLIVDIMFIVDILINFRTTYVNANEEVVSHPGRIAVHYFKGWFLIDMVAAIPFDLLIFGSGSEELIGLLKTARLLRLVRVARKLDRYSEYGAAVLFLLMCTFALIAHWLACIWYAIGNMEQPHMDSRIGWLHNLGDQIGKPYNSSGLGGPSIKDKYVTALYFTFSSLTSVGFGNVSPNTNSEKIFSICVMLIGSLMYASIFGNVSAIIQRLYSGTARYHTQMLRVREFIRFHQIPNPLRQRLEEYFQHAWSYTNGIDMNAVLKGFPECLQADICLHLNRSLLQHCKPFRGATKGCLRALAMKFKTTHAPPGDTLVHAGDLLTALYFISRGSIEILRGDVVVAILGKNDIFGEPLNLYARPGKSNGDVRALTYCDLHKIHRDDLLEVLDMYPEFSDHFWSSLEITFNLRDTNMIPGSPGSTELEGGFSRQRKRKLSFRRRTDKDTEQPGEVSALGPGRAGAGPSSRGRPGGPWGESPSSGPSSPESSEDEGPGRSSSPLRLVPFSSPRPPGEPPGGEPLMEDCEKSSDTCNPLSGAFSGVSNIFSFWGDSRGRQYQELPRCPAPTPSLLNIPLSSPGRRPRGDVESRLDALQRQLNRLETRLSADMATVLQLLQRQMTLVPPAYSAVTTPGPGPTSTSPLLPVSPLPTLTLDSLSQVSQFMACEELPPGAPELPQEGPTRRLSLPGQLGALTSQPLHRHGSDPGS

Oc1ccc(-c2cnc3ccc(NCc4ccc(F)cc4)nn23)cc1 [Compound 1]
B-RAF-V600E percentage of inhibition (B-RAF-V600E): 54% | MET percentage of inhibition (MET): 32% | JAK2 percentage of inhibition (JAK2): 48% | IC50 (PIM-3): 79 nM | EGF-R percentage of inhibition (EGF-R): 33% | CK1-α1 percentage of inhibition (CK1-α1): 33% | FLT3 percentage of inhibition (FLT3): more than 90% | ARK5 percentage of inhibition (ARK5): 71% | IGF1-R percentage of inhibition (IGF1-R): 26% | PAK1 percentage of inhibition (PAK1): 7% | FGF-R1 percentage of inhibition (FGF-R1): 84% | IC50 (PIM-2): 420 nM | FAK percentage of inhibition (FAK): 48% | INS-R percentage of inhibition (INS-R): 67% | AKT1 percentage of inhibition (AKT1): 0% | MST1 percentage of inhibition (MST1): 82%

CN1CCC(CNc2ccc3ncc(-c4cccc(OC(F)(F)F)c4)n3n2)CC1 [Compound 3, reference compound]
cardiac and pharmacokinetic data evaluation in Phase I trial [1]: failed to demonstrate a safe therapeutic window

CN1CCC(CNc2ccc3nnn(-c4cccc(OC(F)(F)F)c4)c3n2)CC1 [Compound 8, (1-Methyl-piperidin-4-ylmethyl)-[3-(3-trifluoromethoxy-phenyl)-3H-[1], [2], [3]triazolo[4,5-b]pyridin-5-yl]-amine]
IC50 (hERG): 5400 nM
